Molecules are shown by their SMILES.

The term melting point denotes the temperature, or range, at which the solid turns liquid.

With `COc1c2c(cc3ccc(=O)oc13)CC(OC)O2` (stereo not given), the melting point lay in the range of 131 to 132 °C.

For the molecule `O=C1Nc2ccccc2C12CCCCC2`, the melting point fell in the range of 164 to 165 °C.

Regarding `CCOCc1nc2c(N)nc(C)c(C)c2n1Cc1cc(-c2ccc(F)cc2)no1`, the melting point is 246 to 247 °C.

As for `COCCSc1sc(-c2cc[nH]n2)c2c1C(=O)CC(C)(C)C2`, the melting point lay within 159 to 162 °C.

As to `C#CCNC(=O)C(F)(F)F`, the melting point lay in the range of 31 to 33 °C.

The molecule `COc1cc2c(cc1C(F)(F)F)N(C(=O)Nc1cncc(-c3cnccc3C)c1)CC2` had a melting point of 125 to 128 °C.

With `COc1ccc(-c2c(=O)[nH]c3cc(Cl)c(Cl)cc3[n+]2[O-])cc1`, the melting point lay in the range of 262 to 264 °C.

`C=C1C(O)C(CO)OC1n1cc(F)c(N)nc1=O` (stereo not given) registered a melting point of 185 to 187 °C.

With `O=[N+]([O-])C=Cc1ccc(O)c(Br)c1`, the melting point was 132 to 134 °C.

Regarding `COC(=O)[C@@H]1C[C@H](C(=O)O)Nc2cc(Cl)c(Cl)c(Cl)c21` (relative stereo), the melting point worked out at 210 °C.

`CCOC(=O)C(=O)Nc1cc(C#N)c(C#N)cc1[N+](=O)[O-]` registered a melting point of 140 to 141 °C.

`O=C1C(=O)c2ccccc2C2=C1SCC1(CCN(CC3CCCO3)CC1)O2` (stereo not given) yielded a melting point of 155 to 159 °C.

`CCCN(CCCCc1c[nH]c2ccc(F)cc12)C1COc2c(F)ccc(C(=O)NC)c2C1` (stereo not given) showed a melting point of 110 °C.

`CC(C)(C)OC(=O)CN1C(=O)C(N2C(=O)c3ccccc3C2=O)CSCC1c1cccs1` (stereo not given): the melting point was 211 to 212 °C.

Consider `CCOCc1cc2ccccc2oc1=Nc1ccc(Cl)cc1`, for which the melting point fell in the range of 84 to 86 °C.

For `N/C(=C1/Sc2ccc(Cl)cc2C1=O)c1ccccc1`, the melting point was in the range of 172 to 173 °C.

On to `CCN(C(=O)C(C)Oc1ccc(Oc2ncc(Cl)cc2Cl)cc1)C(CS)C(=O)O` (stereo not given), for which the melting point lay in the range of 89 to 91 °C.

On to `CCCSc1cc(S(N)(=O)=O)c(N)cc1Cl`, for which the melting point was 109 to 111 °C.

For the molecule `COCCOc1cc2ncc(C#N)c(Cl)c2cc1OCc1ccccc1`, the melting point lay within 142 to 145 °C.

On to `O=S(CCCCCOc1ccc(C2=C(c3ccccc3)CCCc3cc(O)ccc32)cc1)CCCC(F)(F)F` (stereo not given), for which the melting point was found to be 145 °C.

With `FC(F)(F)c1nc(-c2ccccc2)c(-c2ccccc2)c(N2CCN(c3ccccn3)CC2)n1`, the melting point was 165 to 167 °C.

Turning to `N#Cc1cccc(C2=Nc3ccc(-c4cc(F)ccc4F)cc3NC(=O)C2)c1`, the melting point was 247 °C.

In turn, `O=C1C(c2ccc(O)cc2)=C(c2ccccc2)c2ccc(O)cc21` came in with a melting point of 100 to 110 °C.

As to `CCC1(C)CC(NC(=O)c2ccccc2C(=O)O)C(C)C(C)(CC)N1` (stereo not given), the melting point was 196 to 197 °C.

Molecule `CCNC(=O)Nc1nc2cc(-c3c(C)noc3C)cc(C(=O)NCC)n2n1` gave a melting point of 238 to 241 °C.

For the molecule `Cc1ccc(-n2nc(C(N)=O)nc2-c2ccccc2)cc1C`, the melting point was 169 to 170 °C.

Regarding `COCCOc1cc(N(C)S(=O)(=O)c2ccccn2)c2[nH]c(C3=NCC(CC(=O)N(C)CCO)S3)cc2c1` (stereo not given), the melting point fell in the range of 94 to 96 °C.

The molecule `Cc1cc(=O)c(C(=O)Nc2ccccc2)c(-c2ccccc2)o1` yielded a melting point of 222 to 226 °C.

In turn, `CS(=O)(=O)N1CCN2C(=O)N(c3ccc(C#N)c4ccccc34)C(=O)C2C1` (stereo not given) came in with a melting point of 207 to 216 °C.

`O=C1CCc2cc3ccccc3n2C1`: the melting point fell in the range of 126 to 128 °C.

In turn, `CCCCCCCC(=O)c1ccc(CCC(CC)(COC(C)=O)NC(C)=O)cc1` (stereo not given) displayed a melting point of 75 to 76 °C.

`CC1CC(=O)Oc2cc(O)ccc21` (stereo not given) had a melting point of 109 to 110 °C.

On to `Cc1ccc(S(=O)(=O)NC(=O)/C=C/c2c(C)nn(C)c2-n2ccc3cccnc32)cc1`, for which the melting point lay within 237 to 238 °C.

Turning to `C=CCOc1cc2c(cc1C)OC1(CC2(C)C)CC(C)(C)c2cc(OCC=C)c(C)cc2O1`, the melting point lay in the range of 98 to 100 °C.

Regarding `COCCOc1ccc2[nH]c(=O)n(C3CCCCC3)c2c1`, the melting point came out at 182 °C.

Values taken from a melting point compilation (Tetko et al.; mined from patent text by program, amines drawn as free bases though some values may be those of a salt).
